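Tested at 5 concentrations; 48 h exposure; 96-well plates; endpoints linearly interpolated, else capped at highest concentration. Abbreviation: GI50, concentration required for 50% inhibition of growth. Definition used: TGI = concentration required for complete inhibition of growth.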

This passage reports TGI and GI50 results from PubChem BioAssay (NCI).

Common to all, as to assay: growth of human tumour cells (NCI), 48 h
In experiment [1] the test system is SK-OV-3 ovarian.
The test system of experiment [2] is OVCAR-3 ovarian.
The test system of experiment [3] is NCI-H226 lung.
Experiment [4] concerns A549 NSCLC.
Experiment [5] concerns NCI/ADR-RES ovarian.
Experiment [6] has as its system HOP-92 NSCLC.
In experiment [7] the test system is IGROV1 ovarian.
The test system of experiment [8] is CAKI-1 renal.
For experiment [9], the system named is KM12 colon.
The test system of experiment [10] is BT-549 breast.

In the case of `Cc1cnc2[nH]c(-c3cccc(F)c3)cc(=O)c2c1`, the TGI in experiment [1] was greater than 100 µM; in experiment [2] it was 0.0373 µM; in experiment [3] it was 4.43 µM; in experiment [4], greater than 100 µM; in [5], 0.0395 µM; in [6], greater than 100 µM. Moreover, the TGI in experiment [7] was greater than 100 µM; in [8] it was greater than 100 µM; in experiment [9], 1.7 µM.
For `CC(C)=CCC12Cc3ccc(O)cc3C(C(C)CN1)C2C` (configuration not stated), the TGI in experiment [1], in [3], in [4], in experiment [5], in experiment [6] and in [7] was greater than 100 µM throughout. For the same compound, the TGI in [9] is greater than 100 µM.
In the case of `CN(C)CCNc1c([N+](=O)[O-])sc2ccc(Cl)cc12`, the TGI in experiment [10] is greater than 100 µM; in [1], greater than 100 µM; in experiment [2], greater than 100 µM; in experiment [3], 66 µM; in experiment [4], greater than 100 µM; in [5], greater than 100 µM. Also, the TGI in experiment [7] and in [9] was greater than 100 µM in each case.
For `CCCCN1C(=O)CC2[C@@H]3CCc4cc(OC)ccc4C3CC[C@]2(C)C1=O` (some centres not stated), the TGI in experiment [10], in experiment [1], in experiment [2], in experiment [3], in [4] and in experiment [5] was greater than 10 µM throughout. Further, the TGI in experiment [7], in [8] and in experiment [9] was greater than 10 µM throughout.
Turning to `O=C1N/N=C\c2ccc(cc2)OCc2cccc(n2)COc2ccc(cc2)/C=N\NC1=O`, the TGI in experiment [10], in [1], in [2], in experiment [3], in [4] and in [5] was greater than 25 µM in each case. Further, the TGI in experiment [6], in experiment [7] and in experiment [9] was greater than 25 µM in each case.
For `O=c1[nH]c(=O)n(C2CC(O)C(CO)O2)cc1OC/C=C/Cc1ccccc1` (configuration not stated), the TGI in experiment [10], in experiment [1], in experiment [2], in [3], in experiment [4] and in experiment [5] was greater than 100 µM in each case. Further, the TGI in experiment [7], in experiment [8] and in [9] was greater than 100 µM throughout.
Consider `CC(=O)N(C)c1ccc(Nc2ccnc3ccc4nn(C)nc4c23)cc1`, for which the TGI in [10] is 69.4 µM; in experiment [1], 47.6 µM; in [2], 50 µM; in experiment [3], 34.3 µM; in [4], 78 µM; in experiment [5] it was greater than 100 µM. The TGI in experiment [8] was determined as 30.5 µM; in experiment [9], 76.2 µM.
With `c1c(N2CCOCC2)ssc1=[N+]1CCOCC1`, the TGI in experiment [1], in [3], in [4], in experiment [6], in [7] and in [8] was greater than 100 µM in each case. The compound also gave a TGI in [9] greater than 100 µM.
In the case of `CC1=C(C(=O)NC2CCCCC2)CC(C(=O)NC2CCCCC2)=C(C)N1`, the TGI in experiment [10], in experiment [1], in [2], in [4], in experiment [6] and in [7] was greater than 100 µM throughout. Besides, the TGI in experiment [8] and in [9] was greater than 100 µM in each case.
As to `O=C1CC(c2ccccc2Cl)C2(C(=O)NC(=O)NC2=O)C(c2ccccc2Cl)C1` (configuration not stated), the TGI in experiment [10], in [1], in experiment [2], in [3], in experiment [4] and in experiment [5] was greater than 100 µM throughout. Further, the TGI in [6] is greater than 100 µM; in experiment [7] it was 95.9 µM; in experiment [9] it was greater than 100 µM.
For `Clc1cc(C(c2cc(Cl)sc2Cl)c2cc(Cl)sc2Cl)c(Cl)s1`, the TGI in experiment [1], in experiment [2], in experiment [3], in [4], in experiment [5] and in [6] was greater than 100 µM in each case. Further, the TGI in [7], in [8] and in experiment [9] was greater than 100 µM throughout.
`COCC#C[C@@]1(O)CCCCC1CC(OC)OC` (some centres not stated): the TGI in [1], in [3], in experiment [4], in [5], in experiment [6] and in experiment [7] was greater than 100 µM throughout. In addition, the TGI in experiment [8] and in experiment [9] was greater than 100 µM in each case.
As to `N#Cc1nc(CCCN2C(=O)c3ccccc3C2=O)oc1N`, the TGI in experiment [10], in experiment [1], in [2], in [3], in experiment [4] and in experiment [5] was greater than 100 µM each time. Besides, the TGI in [7] and in experiment [8] was greater than 100 µM each time.
Consider `CCN1CCN(Cc2ccc(NC(=O)Nc3ccc(-n4ccc5c(NC(=O)c6ccccc6)nccc54)cc3)cc2C(F)(F)F)CC1`, for which the GI50 in experiment [10] is 1.43 µM; in experiment [1], 1.8 µM; in [2] it was 1.32 µM; in experiment [3], 1.54 µM; in experiment [6] it was 13.3 µM; in experiment [7], 1.42 µM. For the same compound, the GI50 in [9] is 0.0271 µM. The TGI was 2.77 µM in [10]; 10.5 µM in experiment [1]; 2.63 µM in [2]; 4.84 µM in experiment [3]; 59.6 µM in [6]; 4.39 µM in experiment [7]. In addition, the TGI in experiment [9] worked out at 1.45 µM.
